Reference: the supplement of paper PMC11451515

Tests used:
Settings in all cases: 48 h
NOMO1 [1] = test: cell viability relative to DMSO control; higher = less cytotoxic
Summary of the method: (§1)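 In 1536-well plates, 5 μl of leukemia cells were seeded per well: 500 cells/well for NOMO1 or SEM and 1000 cells/well for P12-Ichikawa. Each line had first been adapted for at least four passages in each medium. Library compounds in DMSO were pin-dosed at 11 threefold concentrations between 47 μM and 0.79 nM, and CellTiter-Glo One luminescence was read after 48 h at 37°C. Viability is a per-plate percentage relative to DMSO wells, with cell-free wells as background.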

P12-Ichikawa [2] = test: as above
Summary of the method: as §1

SEM cells [3] = test: as above
Summary of the method: as §1

NOMO1 [4] = test: AUC of viability dose-response curve (% viability x log10 dose units); higher = less sensitive
Summary of the method: (§2)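 In 1536-well plates, leukemia cells adapted to each medium (500 or 1000 cells/well) were exposed for 48 h at 37°C to library compounds in DMSO across 11 threefold doses, 47 μM down to 0.79 nM. Viability was read by CellTiter-Glo One luminescence and normalised per plate to DMSO and cell-free wells. A four-parameter log-logistic fit over log10 doses was integrated by trapezoidal rule. This yielded the area under the curve, with over-full-viability curves scaled and quality-control failures dropped.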

P12-Ichikawa [5] = test: as above
Summary of the method: as §2

SEM cells [6] = test: as above
Summary of the method: as §2

C#CCN(C)[C@H](C)Cc1ccccc1
cell viability [%]
Settings | NOMO1 [1] | P12-Ichikawa [2] | SEM cells [3]
HPLM + 10% dialyzed FBS, 0.000781 µM | 88.2 | 92.5 | 32.3
HPLM + 10% dialyzed FBS, 0.00234 µM | 89.6 | 93.5 | 83.6
HPLM + 10% dialyzed FBS, 0.00702 µM | 88.5 | 93.7 | 87.3
HPLM + 10% dialyzed FBS, 0.0211 µM | 87.2 | 89.8 | 83.5
HPLM + 10% dialyzed FBS, 0.0632 µM | 76.7 | 106 | 70.2
HPLM + 10% dialyzed FBS, 0.19 µM | 79.7 | 93 | 91.8
HPLM + 10% dialyzed FBS, 0.569 µM | 85.6 | 73.2 | 93.1
HPLM + 10% dialyzed FBS, 1.71 µM | 83 | 89.5 | 90.2
HPLM + 10% dialyzed FBS, 5.12 µM | 92 | 92.7 | 89.5
HPLM + 10% dialyzed FBS, 15.4 µM | 79.8 | 80.1 | 87.2
HPLM + 10% dialyzed FBS, 46.1 µM | 65.1 | 88.3 | 92.5
RPMI 5 mM glucose + 10% FBS, 0.000781 µM | 82.2 | 82.9 | 34.7
RPMI 5 mM glucose + 10% FBS, 0.00234 µM | 82.8 | 82.3 | 91.5
RPMI 5 mM glucose + 10% FBS, 0.00702 µM | 82 | 88.9 | 103
RPMI 5 mM glucose + 10% FBS, 0.0211 µM | 85.4 | 83.7 | 107
RPMI 5 mM glucose + 10% FBS, 0.0632 µM | 77 | 92.2 | 83.4
RPMI 5 mM glucose + 10% FBS, 0.19 µM | 83.9 | 92.7 | 95.9
RPMI 5 mM glucose + 10% FBS, 0.569 µM | 79.4 | 89.3 | 62.6
RPMI 5 mM glucose + 10% FBS, 1.71 µM | 76 | 82.8 | 70.9
RPMI 5 mM glucose + 10% FBS, 5.12 µM | 82.9 | 81.5 | 95.7
RPMI 5 mM glucose + 10% FBS, 15.4 µM | 78.9 | 87.9 | 86.3
RPMI 5 mM glucose + 10% FBS, 46.1 µM | 77.5 | 89 | 90.5
RPMI 5 mM glucose + 10% dialyzed FBS, 0.000781 µM | 77.6 | 79.3 | 27.1
RPMI 5 mM glucose + 10% dialyzed FBS, 0.00234 µM | 86.1 | 88.6 | 89.6
RPMI 5 mM glucose + 10% dialyzed FBS, 0.00702 µM | 84.2 | 83.1 | 99.3
RPMI 5 mM glucose + 10% dialyzed FBS, 0.0211 µM | 95.6 | 86.5 | 97.9
RPMI 5 mM glucose + 10% dialyzed FBS, 0.0632 µM | 85 | 83.8 | 70.8
RPMI 5 mM glucose + 10% dialyzed FBS, 0.19 µM | 94 | 88.3 | 89.6
RPMI 5 mM glucose + 10% dialyzed FBS, 0.569 µM | 83.5 | 93.5 | 81.1
RPMI 5 mM glucose + 10% dialyzed FBS, 1.71 µM | 80 | 82 | 86.9
RPMI 5 mM glucose + 10% dialyzed FBS, 5.12 µM | 92.2 | 80.9 | 89.1
RPMI 5 mM glucose + 10% dialyzed FBS, 15.4 µM | 83.6 | 80.2 | 93.8
RPMI 5 mM glucose + 10% dialyzed FBS, 46.1 µM | 82.7 | 79.5 | 86

AUC of viability dose-response curve
Settings | NOMO1 [4] | P12-Ichikawa [5] | SEM cells [6]
HPLM + 10% dialyzed FBS | 401 | 431 | 401
RPMI 5 mM glucose + 10% FBS | 385 | 413 | 410
RPMI 5 mM glucose + 10% dialyzed FBS | 410 | 402 | 407

O=C(NC1CCOCC1)c1ccc(-c2cc(-c3c[nH]nc3-c3ccccn3)ccn2)cc1
cell viability [%]
Settings | NOMO1 [1] | P12-Ichikawa [2] | SEM cells [3]
HPLM + 10% dialyzed FBS, 0.000781 µM | 125 | 104 | 106
HPLM + 10% dialyzed FBS, 0.00234 µM | 99.7 | 103 | 108
HPLM + 10% dialyzed FBS, 0.00702 µM | 110 | 110 | 108
HPLM + 10% dialyzed FBS, 0.0211 µM | 93.6 | 104 | 115
HPLM + 10% dialyzed FBS, 0.0632 µM | 120 | 111 | 117
HPLM + 10% dialyzed FBS, 0.19 µM | 107 | 108 | 120
HPLM + 10% dialyzed FBS, 0.569 µM | 114 | 109 | 114
HPLM + 10% dialyzed FBS, 1.71 µM | 101 | 96.6 | 112
HPLM + 10% dialyzed FBS, 5.12 µM | 87.5 | 98.3 | 105
HPLM + 10% dialyzed FBS, 15.4 µM | 110 | 92.4 | 120
HPLM + 10% dialyzed FBS, 46.1 µM | 108 | 104 | 114
RPMI 5 mM glucose + 10% FBS, 0.000781 µM | 99.4 | 104 | 124
RPMI 5 mM glucose + 10% FBS, 0.00234 µM | 97.6 | 109 | 116
RPMI 5 mM glucose + 10% FBS, 0.00702 µM | 102 | 110 | 124
RPMI 5 mM glucose + 10% FBS, 0.0211 µM | 98.8 | 109 | 121
RPMI 5 mM glucose + 10% FBS, 0.0632 µM | 99.7 | 109 | 118
RPMI 5 mM glucose + 10% FBS, 0.19 µM | 104 | 94.1 | 132
RPMI 5 mM glucose + 10% FBS, 0.569 µM | 93.2 | 98.4 | 104
RPMI 5 mM glucose + 10% FBS, 1.71 µM | 87.3 | 85.7 | 120
RPMI 5 mM glucose + 10% FBS, 5.12 µM | 93.1 | 99.9 | 118
RPMI 5 mM glucose + 10% FBS, 15.4 µM | 104 | 97.8 | 122
RPMI 5 mM glucose + 10% FBS, 46.1 µM | 93.8 | 99.9 | 122
RPMI 5 mM glucose + 10% dialyzed FBS, 0.000781 µM | 106 | 114 | 98.7
RPMI 5 mM glucose + 10% dialyzed FBS, 0.00234 µM | 94.9 | 109 | 108
RPMI 5 mM glucose + 10% dialyzed FBS, 0.00702 µM | 99.6 | 103 | 110
RPMI 5 mM glucose + 10% dialyzed FBS, 0.0211 µM | 91.1 | 105 | 111
RPMI 5 mM glucose + 10% dialyzed FBS, 0.0632 µM | 104 | 103 | 104
RPMI 5 mM glucose + 10% dialyzed FBS, 0.19 µM | 92.4 | 102 | 105
RPMI 5 mM glucose + 10% dialyzed FBS, 0.569 µM | 95.3 | 96 | 106
RPMI 5 mM glucose + 10% dialyzed FBS, 1.71 µM | 104 | 105 | 104
RPMI 5 mM glucose + 10% dialyzed FBS, 5.12 µM | 96.7 | 88.4 | 113
RPMI 5 mM glucose + 10% dialyzed FBS, 15.4 µM | 97.8 | 97.5 | 110
RPMI 5 mM glucose + 10% dialyzed FBS, 46.1 µM | 93 | 89.8 | 123

AUC of viability dose-response curve
Settings | NOMO1 [4] | P12-Ichikawa [5] | SEM cells [6]
HPLM + 10% dialyzed FBS | 458 | 463 | 464
RPMI 5 mM glucose + 10% FBS | 465 | 448 | 474
RPMI 5 mM glucose + 10% dialyzed FBS | 466 | 435 | 453
